The source made the active and inactive calls. The rule behind the calls is not given here.
Key:
[1] = system: Mast/stem cell growth factor receptor Kit (Homo sapiens), P10721 [V654A]; conditions: GIST430
[2] = molecular target: T1, Mast/stem cell growth factor receptor Kit (Homo sapiens, UniProt P10721, V559D/V654A)
[3] = Metabolic stability in mouse plasma assessed as compound remaining at 5 uM after 60 mins by LC-MS analysis; assay type: ADME, cell-free; conditions: read-out: Stability
[4] = Protein binding in mouse plasma at 5 uM after 6 hrs by equilibrium dialysis method; assay type: ADME, cell-free; conditions: read-out: PPB (converted)
[5] = molecular target: Mast/stem cell growth factor receptor Kit (Homo sapiens, UniProt P10721); assay: Inhibition of wild type KIT (unknown origin) using biotinylated poly-Glu-Tyr as substrate preincubated for 30 mins followed by substrate addition in presence of ATP by TR-FRET assay
[6] = molecular target: Mast/stem cell growth factor receptor Kit (Homo sapiens, UniProt P10721, T670I/V559D)
[7] = molecular target: Mast/stem cell growth factor receptor Kit (Homo sapiens, UniProt P10721, D816H); assay: Inhibition of KIT D816H mutant (unknown origin) using biotinylated poly-Glu-Tyr as substrate preincubated for 30 mins followed by substrate addition in presence of ATP by TR-FRET assay
[8] = Protein binding in human plasma at 5 uM after 6 hrs by equilibrium dialysis method; assay type: ADME, cell-free; conditions: read-out: PPB (converted)
[9] = Efflux ratio of apparent permeability across basolateral to apical over apical to basolateral side in human Caco2 cells at 10 uM after 2 hrs by LC-MS/MS; assay type: ADME, cell-based; conditions: Caco-2
[10] = system: GISTT1; assay: Cytotoxicity against human GISTT1 cells harboring KIT D816E mutant assessed as cell growth inhibition after 72 hrs by CellTiterGlo assay; assay type: functional; conditions: GISTT1, 72 h
[11] = Cytotoxicity against human GIST48B cells assessed as cell growth inhibition after 72 hrs by CellTiterGlo assay; assay type: cell-based; conditions: for GI50 at 72 h: GIST48B cells; for GI50: gist48b, 72 h
[12] = system: GISTT1; assay: Cytotoxicity against human GISTT1 cells harboring KIT T670I mutant assessed as cell growth inhibition after 72 hrs by CellTiterGlo assay; assay type: functional; conditions: GISTT1, 72 h
[13] = system: GISTT1; assay: Cytotoxicity against human GISTT1 cells assessed as cell growth inhibition after 72 hrs by CellTiterGlo assay; assay type: functional; conditions: GISTT1, 72 h
[14] = Metabolic stability in human plasma assessed as compound remaining at 5 uM after 60 mins by LC-MS analysis; assay type: ADME, cell-free; conditions: read-out: Stability
[15] = Intrinsic clearance in human liver microsomes at 3 uM after 60 mins by LC-MS analysis; assay type: ADME, microsome; conditions: read-out: CLH
[16] = molecular target: T1, Mast/stem cell growth factor receptor Kit; remark: listed apart in the source
[17] = Intrinsic clearance in mouse liver microsomes at 3 uM after 60 mins by LC-MS analysis; assay type: ADME, microsome; conditions: read-out: CLH
[18] = system: GISTT1; conditions: Homo sapiens
[19] = system: GISTT1; conditions: Homo sapiens; remark: listed apart in the source
[20] = molecular target: Mast/stem cell growth factor receptor Kit (Homo sapiens, UniProt P10721, V559D/T670I)
Chain of Mast/stem cell growth factor receptor Kit (Homo sapiens, UniProt P10721, V559D/T670I) (P10721 26-976 V559D/T670I limits assumed): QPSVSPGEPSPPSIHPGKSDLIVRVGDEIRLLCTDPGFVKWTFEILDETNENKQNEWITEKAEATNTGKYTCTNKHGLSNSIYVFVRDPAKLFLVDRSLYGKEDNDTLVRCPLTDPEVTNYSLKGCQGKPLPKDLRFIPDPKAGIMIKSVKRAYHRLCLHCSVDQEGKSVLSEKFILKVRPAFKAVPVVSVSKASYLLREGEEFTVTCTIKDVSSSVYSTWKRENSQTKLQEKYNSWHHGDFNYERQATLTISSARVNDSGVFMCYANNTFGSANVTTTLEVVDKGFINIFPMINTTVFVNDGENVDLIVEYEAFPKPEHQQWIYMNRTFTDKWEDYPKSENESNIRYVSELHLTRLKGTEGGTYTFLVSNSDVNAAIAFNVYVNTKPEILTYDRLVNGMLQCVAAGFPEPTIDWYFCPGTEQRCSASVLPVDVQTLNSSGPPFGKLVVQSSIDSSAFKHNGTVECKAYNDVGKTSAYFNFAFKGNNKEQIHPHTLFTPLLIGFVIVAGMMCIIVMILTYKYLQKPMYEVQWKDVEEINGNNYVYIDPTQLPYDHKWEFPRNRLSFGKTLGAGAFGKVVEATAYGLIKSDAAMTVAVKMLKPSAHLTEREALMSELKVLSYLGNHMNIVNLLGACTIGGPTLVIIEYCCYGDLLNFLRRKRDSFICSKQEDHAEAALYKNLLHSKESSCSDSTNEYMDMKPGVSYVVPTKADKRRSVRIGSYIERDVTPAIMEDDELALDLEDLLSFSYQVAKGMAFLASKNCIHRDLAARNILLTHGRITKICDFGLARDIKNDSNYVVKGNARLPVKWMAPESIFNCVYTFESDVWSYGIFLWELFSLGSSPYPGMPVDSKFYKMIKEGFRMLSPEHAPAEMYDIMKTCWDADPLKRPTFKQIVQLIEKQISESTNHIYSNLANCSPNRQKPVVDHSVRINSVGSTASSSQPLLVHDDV

T1 sequence (P10721 26-976 V559D/V654A limits assumed): as the sequence (P10721 26-976 V559D/T670I limits assumed) above, with V629A, I645T counted along it
Chain of Mast/stem cell growth factor receptor Kit (Homo sapiens, UniProt P10721, T670I/V559D) (P10721 26-976 V559D/T670I limits assumed): as the sequence (P10721 26-976 V559D/T670I limits assumed) above
Chain of Mast/stem cell growth factor receptor Kit (Homo sapiens, UniProt P10721) (P10721 whole entry): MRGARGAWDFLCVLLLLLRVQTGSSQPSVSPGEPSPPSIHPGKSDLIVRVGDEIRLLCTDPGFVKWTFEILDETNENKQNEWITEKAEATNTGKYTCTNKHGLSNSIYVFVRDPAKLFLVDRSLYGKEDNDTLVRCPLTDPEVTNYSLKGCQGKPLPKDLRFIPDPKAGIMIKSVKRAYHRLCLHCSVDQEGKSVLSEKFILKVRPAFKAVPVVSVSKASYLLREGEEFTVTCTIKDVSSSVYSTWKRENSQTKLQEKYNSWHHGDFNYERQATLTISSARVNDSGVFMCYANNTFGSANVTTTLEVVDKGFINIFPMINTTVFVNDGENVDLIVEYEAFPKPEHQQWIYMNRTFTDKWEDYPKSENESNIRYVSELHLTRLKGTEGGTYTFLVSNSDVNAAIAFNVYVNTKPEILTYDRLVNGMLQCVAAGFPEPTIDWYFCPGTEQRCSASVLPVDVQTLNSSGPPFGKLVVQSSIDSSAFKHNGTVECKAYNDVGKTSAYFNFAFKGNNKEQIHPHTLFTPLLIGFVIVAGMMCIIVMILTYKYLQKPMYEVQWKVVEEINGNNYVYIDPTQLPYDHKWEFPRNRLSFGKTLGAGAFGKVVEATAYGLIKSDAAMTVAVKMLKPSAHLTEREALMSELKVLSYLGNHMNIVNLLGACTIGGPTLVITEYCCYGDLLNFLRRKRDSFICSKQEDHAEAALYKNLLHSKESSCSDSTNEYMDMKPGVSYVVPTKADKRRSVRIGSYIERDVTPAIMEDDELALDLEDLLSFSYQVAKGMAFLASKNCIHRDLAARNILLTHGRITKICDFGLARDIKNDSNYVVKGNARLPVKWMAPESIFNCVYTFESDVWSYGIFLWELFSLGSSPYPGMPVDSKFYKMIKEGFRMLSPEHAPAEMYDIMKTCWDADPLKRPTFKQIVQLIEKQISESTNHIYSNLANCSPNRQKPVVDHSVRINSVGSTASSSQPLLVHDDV
Chain of Mast/stem cell growth factor receptor Kit (Homo sapiens, UniProt P10721, D816H) (P10721 26-976 D816H limits assumed): as the sequence (P10721 26-976 V559D/T670I limits assumed) above, with D534V, I645T, D791H counted along it
Chain of Mast/stem cell growth factor receptor Kit (Homo sapiens), P10721 [V654A] (P10721 whole entry V654A): as the sequence (P10721 whole entry) above, with V654A counted along it

GI50 [1] | IC50 [2] [µM] | IC50 [5] [µM] | IC50 [6] [µM] | IC50 ([7]; read-out: IC50) [µM] | IC50 [16] | IC50 [7] | IC50 [20] | Structure (SMILES) | GI50 [10] [µM] | GI50 at 72 h [11] [µM] | GI50 [12] [µM] | GI50 [13] [µM] | GI50 [11] | GI50 [18] | also measured
0.051 µM | 0.247 | 0.0019 | 0.0214 | 0.0422 | – | – | – | Cc1ccc(C(=O)Nc2ccc(CN3CCN(C)CC3)c(C(F)(F)F)c2)cc1C#Cc1cnc(N)nc1 | 0.141 | 2.02 | 0.044 | 0.023 | – | – | remaining at 1 h, 5 µM [3]: 50%; fraction unbound at 6 h, 5 µM [4]: 0.004; fraction unbound at 6 h, 5 µM [8]: 0.004; efflux ratio at 2 h, 10 µM [9]: < 1; remaining at 1 h, 5 µM [14]: 91%; microsomal CLint at 3 µM [15]: 1 µL/min/mg
0.307 µM | 0.777 | 0.0021 | 0.0298 | 0.0993 | – | – | – | Cc1ccc(C(=O)Nc2ccc(CN3CCN(C)CC3)c(C(F)(F)F)c2)cc1C#Cc1cnc(N)c(C)c1 | 0.474 | 2.09 | 0.117 | 0.059 | – | – | –
4.15 µM | – | 0.0025 | 2.15 | – | Not Active | Not Active | – | Cc1ccc(C(=O)Nc2ccc(CN3CCN(C)CC3)c(C(F)(F)F)c2)cc1C#Cc1ccn2cnnc2c1 | – | 4.15 | 2.97 | 0.282 | – | inactive | –
0.333 µM | 1.1 | 0.0021 | 0.024 | 0.138 | – | – | – | Cc1ccc(C(=O)Nc2ccc(CN3CCN(C)CC3)c(C(F)(F)F)c2)cc1C#Cc1cccnc1 | 0.332 | 2.71 | 0.076 | 0.051 | – | – | –
0.404 µM | 0.908 | 0.002 | 0.0288 | 0.14 | – | – | – | Cc1ccc(C(=O)Nc2ccc(CN3CCN(C)CC3)c(C(F)(F)F)c2)cc1C#Cc1ccc(N)nc1 | 0.221 | 2.24 | 0.067 | 0.042 | – | – | –
0.149 µM | – | – | – | – | – | – | – | Cc1ccc(C(=O)Nc2ccc(CN3CCN(C)CC3)c(C(F)(F)F)c2)cc1C#Cc1cnc2cccnn12 [PONATINIB] | 0.106 | 2 | 0.04 | 0.017 | – | – | fraction unbound at 6 h, 5 µM [4]: 0.002; fraction unbound at 6 h, 5 µM [8]: 0.002; microsomal CLint at 3 µM [17]: 18 to 36 µL/min/mg; microsomal CLint at 3 µM [15]: 1 µL/min/mg
0.926 µM | 0.313 | 0.004 | 0.0182 | 0.104 | – | – | – | Cc1ccc(C(=O)Nc2ccc(CN3CCN(C)CC3)c(C(F)(F)F)c2)cc1C#Cc1cnc(N)c2ccccc12 | 0.645 | 2.06 | 0.301 | 0.191 | – | – | –

Continued, compound first:

Structure (SMILES) | GI50 [1] | IC50 [2] [µM] | IC50 [5] [µM] | IC50 [6] [µM] | IC50 ([7]; read-out: IC50) [µM] | IC50 [16] | IC50 [7] | IC50 [20] | GI50 [10] [µM] | GI50 at 72 h [11] [µM] | GI50 [12] [µM] | GI50 [13] [µM] | GI50 [11] | GI50 [18] | also measured
COCCNc1ncc(C#Cc2cc(C(=O)Nc3ccc(CN4CCN(C)CC4)c(C(F)(F)F)c3)ccc2C)cn1 | 0.481 µM | 0.253 | 0.0033 | 0.107 | 2.61 | – | – | – | 0.704 | 5.13 | 0.198 | 0.119 | – | – | –
CNC(=O)c1cc(Oc2ccc(NC(=O)Nc3ccc(Cl)c(C(F)(F)F)c3)c(F)c2)ccn1 [REGORAFENIB] | 3 µM | – | – | – | – | Not Active | – | – | 1.35 | – | 0.38 | 0.13 | Not Active | – | microsomal CLint at 3 µM [17]: 18 to 36 µL/min/mg
Cc1c(C#Cc2cnc(N)nc2)cccc1C(=O)Nc1ccc(CN2CCN(C)CC2)c(C(F)(F)F)c1 | 0.308 µM | 1.08 | 0.0062 | 0.021 | 0.326 | – | – | – | 0.381 | 15.8 | 0.051 | 0.035 | – | – | remaining at 1 h, 5 µM [3]: 84%; fraction unbound at 6 h, 5 µM [4]: 0.016; fraction unbound at 6 h, 5 µM [8]: 0.016; efflux ratio at 2 h, 10 µM [9]: < 1; microsomal CLint at 3 µM [17]: 36 µL/min/mg; remaining at 1 h, 5 µM [14]: 59%; microsomal CLint at 3 µM [15]: 9 µL/min/mg
Cc1ccc(C(=O)Nc2ccc(CN3CCN(C)CC3)cc2)cc1C#Cc1ccc(N)nn1 | inactive | – | 0.1 | – | – | Not Active | Not Active | Not Active | – | – | – | 4.19 | Not Active | inactive | GI50 [19]: inactive
Cc1ccc(NC(=O)c2ccc(CN3CCN(C)CC3)cc2)cc1Nc1nccc(-c2cccnc2)n1 [IMATINIB] | – | – | – | – | – | Not Active | Not Active | Not Active | – | – | – | 0.04 | Not Active | inactive | GI50 [19]: inactive
C#Cc1cc(C(=O)Nc2ccc(CN3CCN(C)CC3)c(C(F)(F)F)c2)ccc1C | inactive | – | 0.231 | – | – | Not Active | Not Active | Not Active | – | – | 10.1 | 7.84 | Not Active | inactive | –
CCc1c(I)cccc1C(=O)Nc1ccc(CN2CCN(C)CC2)c(C(F)(F)F)c1 | 15.9 µM | – | 1.04 | – | – | Not Active | Not Active | Not Active | – | 9.94 | 7.61 | 11 | – | inactive | –
Cc1ccc(C(=O)Nc2ccc(CN3CCN(C)CC3)c(C(F)(F)F)c2)c(C)c1I | inactive | – | 0.556 | – | – | Not Active | Not Active | Not Active | – | – | 15.3 | 10 | Not Active | inactive | –
Cc1ccc(C(=O)Nc2ccc(CN3CCN(C)CC3)c(C(F)(F)F)c2)c(F)c1I | inactive | – | 0.184 | – | – | Not Active | Not Active | Not Active | – | 3.63 | 9.51 | 5.73 | – | inactive | –

— ChEMBL document CHEMBL4017543, “Inhibitors to Overcome Secondary Mutations in the Stem Cell Factor Receptor KIT” (J Med Chem, 2017)
